Measured values as given in ChEMBL document CHEMBL4190238, “Discovery of potent IDO1 inhibitors derived from tryptophan using scaffold-hopping and structure-based design approaches” (Eur J Med Chem, 2017).
Calls of active or inactive are those of the source. The rule behind the calls is not given here.

Tests used:
[1] = biological target: Indoleamine 2,3-dioxygenase 1 (Mus musculus) (UniProt P28776); assay: Inhibition of IDO1 in mouse B16F1 cells co-cultured with Balb/c mouse T-cells assessed as increase in IFN-gamma level at 1.5 uM after 48 hrs by ELISA; assay type: cell-based
[2] = biological target: Indoleamine 2,3-dioxygenase 1 (Mus musculus) (UniProt P28776); assay: Inhibition of IDO1 in mouse B16F1 cells co-cultured with Balb/c mouse T-cells assessed as reversal of IDO1-mediated suppression of T-cell proliferation at 1.5 uM after 48 hrs by MTT assay; assay type: cell-based
[3] = biological target: T1, Indoleamine 2,3-dioxygenase 1 (Homo sapiens, UniProt P14902); assay: Inhibition of IFNgamma-induced IDO1 in human HeLa cells using L-tryptophan as substrate after 24 hrs; assay type: cell-based
Target sequence in this assay (P14902 whole entry): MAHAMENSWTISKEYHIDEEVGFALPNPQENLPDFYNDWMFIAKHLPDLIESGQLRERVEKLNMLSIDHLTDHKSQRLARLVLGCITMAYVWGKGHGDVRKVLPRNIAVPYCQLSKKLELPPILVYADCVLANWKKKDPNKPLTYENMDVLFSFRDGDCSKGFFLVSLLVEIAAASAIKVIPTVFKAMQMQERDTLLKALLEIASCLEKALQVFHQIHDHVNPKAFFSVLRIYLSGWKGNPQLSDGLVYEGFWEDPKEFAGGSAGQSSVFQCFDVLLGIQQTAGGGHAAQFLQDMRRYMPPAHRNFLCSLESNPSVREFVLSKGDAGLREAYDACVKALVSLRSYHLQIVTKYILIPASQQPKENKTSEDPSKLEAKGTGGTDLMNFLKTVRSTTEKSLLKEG

HeLa [4] = assay: Cytotoxicity against human HeLa cells assessed as reduction in cell viability at 10 to 30 uM after 24 hrs by MTT assay; assay type: cell-based
[5] = biological target: Indoleamine 2,3-dioxygenase 1 (Mus musculus) (UniProt P28776); assay: Inhibition of IDO1 in mouse B16F1 cells co-cultured with Balb/c mouse T-cells assessed as reversal of IDO1-mediated suppression of T-cell proliferation at 18 uM after 48 hrs by MTT assay; assay type: cell-based
[6] = biological target: Indoleamine 2,3-dioxygenase 1 (Mus musculus) (UniProt P28776); assay: Inhibition of IDO1 in mouse B16F1 cells co-cultured with Balb/c mouse T-cells assessed as decrease in differentiation of Treg cells by measuring CD4+/CD25+/FOXP3 cells at 18 uM by FITC/APC/PE staining based flow cytometry (reference value: 11.7%); assay type: cell-based; parameters: scale not given: the % may be the effect or the level left
HeLa [7] = assay: Inhibition of IFNgamma-induced IDO1 protein expression in human HeLa cells at IDO1 inhibitory IC50 after 24 hrs by Western blot method; assay type: functional, cell-based
[8] = biological target: Indoleamine 2,3-dioxygenase 1 (Mus musculus) (UniProt P28776); assay: Inhibition of IDO1 in mouse B16F1 cells co-cultured with Balb/c mouse T-cells assessed as increase in IFN-gamma level at 18 uM after 48 hrs by ELISA; assay type: cell-based
[9] = biological target: T1, Indoleamine 2,3-dioxygenase 1; assay: Binding affinity to recombinant human IDO1 assessed as interaction with ferrous ion in enzyme active site by measuring absorbance maxima for ferrous heme at 2 mM by UV-Visible spectral analysis (reference value: 424 nanometer)
Target sequence in this assay (P14902 whole entry, looked up): as the sequence (P14902 whole entry) above

[10] = biological target: Indoleamine 2,3-dioxygenase 1 (Mus musculus) (UniProt P28776); assay: Inhibition of IDO1 in mouse B16F1 cells co-cultured with Balb/c mouse T-cells assessed as decrease in differentiation of Treg cells by measuring CD4+/CD25+/FOXP3 cells at 30 uM by FITC/APC/PE staining based flow cytometry (reference value: 11.7%); assay type: cell-based; parameters: scale not given: the % may be the effect or the level left
[11] = biological target: Indoleamine 2,3-dioxygenase 1 (Mus musculus) (UniProt P28776); assay: Inhibition of IDO1 in mouse B16F1 cells co-cultured with Balb/c mouse T-cells assessed as increase in IFN-gamma level at 30 uM after 48 hrs by ELISA; assay type: cell-based
[12] = biological target: Indoleamine 2,3-dioxygenase 1 (Mus musculus) (UniProt P28776); assay: Inhibition of IDO1 in mouse B16F1 cells co-cultured with Balb/c mouse T-cells assessed as reversal of IDO1-mediated suppression of T-cell proliferation at 30 uM after 48 hrs by MTT assay; assay type: cell-based

Sequence of Indoleamine 2,3-dioxygenase 1 (Mus musculus) (P28776 whole entry, looked up): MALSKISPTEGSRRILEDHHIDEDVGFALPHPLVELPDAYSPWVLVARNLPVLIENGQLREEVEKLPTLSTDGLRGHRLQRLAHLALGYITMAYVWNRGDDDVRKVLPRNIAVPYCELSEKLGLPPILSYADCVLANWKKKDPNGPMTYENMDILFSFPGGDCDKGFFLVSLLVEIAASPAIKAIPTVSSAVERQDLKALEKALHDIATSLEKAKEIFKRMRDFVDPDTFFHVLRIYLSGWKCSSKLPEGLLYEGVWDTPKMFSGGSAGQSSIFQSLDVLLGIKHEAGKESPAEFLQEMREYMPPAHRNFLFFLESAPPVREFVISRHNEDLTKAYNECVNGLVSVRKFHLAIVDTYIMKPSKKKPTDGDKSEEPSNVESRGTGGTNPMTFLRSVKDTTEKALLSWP

SMILES	IC50 [3] [µM]	Activity (HeLa [4])	further results
OC(CC1c2ccccc2-c2cncn21)C1CCCCC1 (racemic)			inhibition [1]: Active; inhibition [2]: Active
O=C(Cn1c(=O)oc2ccccc21)c1ccc(Cl)cc1	38.6	Non-Toxic	
O=C(Cn1c(=O)oc2ccccc21)c1cccc(Cl)c1	49.3	Non-Toxic	
O=C(Cc1ccc(F)cc1)n1c(=O)oc2ccc(Cl)cc21	6.4	Non-Toxic	inhibition [5]: Active; Activity [6]: 7.1%; inhibition (HeLa [7]): inactive; inhibition [8]: Active
COc1cccc(CNC(=O)n2c(=O)oc3ccc(Cl)cc32)c1	14.6	Non-Toxic	
O=c1oc2ccc(Cl)cc2n1CCc1ccccc1	17.9	Non-Toxic	
O=c1oc2ccc(Cl)cc2n1Cc1ccc(Cl)cc1	6.08	Non-Toxic	Activity [9]: 418 nm; inhibition [5]: 52%; Activity [6]: 8.7%; inhibition (HeLa [7]): inactive; inhibition [8]: Active
O=c1oc2ccc(F)cc2n1Cc1cccc(F)c1	28.5	Non-Toxic	
Nc1ccc2oc(=O)n(Cc3cccc(F)c3)c2c1	> 100	Non-Toxic	
O=c1oc2ccc(Cl)cc2n1CC(O)c1cccc(Cl)c1 (stereo not drawn)	60.9	Non-Toxic	
O=C(Cc1ccc(F)cc1)n1c(=O)oc2ccccc21	> 100	Non-Toxic	
O=c1oc2ccccc2n1CC(O)c1ccc(F)cc1 (stereo not drawn)	49.3	Non-Toxic	
O=c1oc2ccc([N+](=O)[O-])cc2n1Cc1cccc(F)c1	99.8	Non-Toxic	
O=c1oc2ccc([N+](=O)[O-])cc2n1Cc1ccc(Cl)cc1	99.3	Non-Toxic	
COc1ccc(NC(=O)n2c(=O)oc3ccc(Cl)cc32)cc1	> 100	Non-Toxic	
O=C(Cn1c(=O)oc2ccc(Cl)cc21)c1cccc(Cl)c1	76.6	Non-Toxic	

SMILES	IC50 [3] [µM]	Activity (HeLa [4])	further results
O=C(Cn1c(=O)oc2ccc(Cl)cc21)c1ccc(Cl)cc1	24.9	Non-Toxic	
O=c1oc2ccc(Cl)cc2n1Cc1cccc(F)c1	9.75	Non-Toxic	Activity [9]: 418 nm; Activity [10]: 6%; inhibition [11]: Active; inhibition (HeLa [7]): inactive; inhibition [12]: Active
O=c1oc2ccccc2n1Cc1cccc(F)c1	30.8	Non-Toxic	
O=c1oc2ccccc2n1CC(O)c1cccc(Cl)c1 (stereo not drawn)	80.6	Non-Toxic	
O=C(Cn1c(=O)oc2ccc(Cl)cc21)c1ccc(F)cc1	20.7	Non-Toxic	
O=c1[nH]c2ccccc2n1CC(O)c1ccc(F)cc1 (stereo not drawn)	99.9	Non-Toxic	
O=C(Cn1c(=O)oc2ccccc21)c1ccc(F)cc1	53.1	Non-Toxic	
COc1ccc(CNC(=O)n2c(=O)oc3ccccc32)cc1	31.8	Non-Toxic	
O=C(c1ccccc1)n1c(=O)oc2ccccc21	90.5	Non-Toxic	
O=c1oc2ccccc2n1CC(O)c1ccc(Cl)cc1 (stereo not drawn)	50.8	Non-Toxic	
O=c1oc2ccccc2n1Cc1ccc(Cl)cc1	35	Non-Toxic	
O=c1oc2ccc(Cl)cc2n1CC(O)c1ccc(Cl)cc1 (stereo not drawn)	62.7	Non-Toxic	
O=c1oc2ccc(Cl)cc2n1CC(O)c1ccc(F)cc1 (stereo not drawn)	10.2	Non-Toxic	
O=c1oc2ccc(F)cc2n1Cc1ccc(Cl)cc1	80.8	Non-Toxic	
Nc1nc2ccccc2n1C(=O)Cc1ccc(F)cc1	22.7	Non-Toxic	
O=c1oc2ccccc2n1CCc1ccccc1	> 100	Non-Toxic	
